Source: US20070074295A1 (priority 2000, published 2007)

Assays:
[1] = tested on: freely moving rats; test: Induction and maintenance of PCP-induced hypofunction: LCGU by 14C-2-deoxyglucose autoradiography; format: in vivo, rat
Procedure: An initial treatment period of intraperitoneal (i.p.) injections once daily for 5 days was carried out, followed by a maintenance schedule of i.p. injections three times weekly (every 60 hours) for a further 21 days.
Intermittent exposure to PCP during the maintenance phase of the model was favoured due to the long half life of the drug within brain tissue (Misra, A. L. et al). […] As a comparison to the present model, the inventors also investigated the effect of previously published subchronic treatment with PCP (Jentsch, J. D. et al) using quantitative C-2-deoxyglucose autoradiography (Sokoloff, L.)
Local cerebral glucose utilisation (LCGU) was measured using an adaptation of the original method for freely moving rats (Crane, A. M. et al) 72 hours after the initial induction phase (day 8) and 72 hours after the induction phase followed by the maintenance phase (day 29). LCGU was measured 72 hours after the last exposure to PCP so the effects of PCP on LCGU would be independent of the acute effects of the drug. […] Thus, using a dose of 2.59 mgkg^−1 the inventors had established a novel treatment paradigm which mimics the findings of human imaging studies in schizophrenic patients.

[2] = tested on: CIRL3 variant AA mRNA; test: Semi-quantitative RT-PCR, prefrontal cortex, chronic PCP and antipsychotic treatment; format: in vivo, rat; conditions: chronic PCP treatment
Procedure: FIG. 16 illustrates the level of CIRL3 variant AA mRNA present in the prefrontal cortex of rat brain following chronic PCP and antipsychotic treatment (n=12 for all groups apart from veh-veh where n=11) […] and […] (SEQ ID NOS: 29-30) were the primer sequences used to amplify this product.
RT-PCR for specific isoforms of CIRL was then conducted in the prefrontal cortex.
1 ml of lysis buffer (Qiagen), including 1% β-mercaptoethanol, was added to approximately 50-100 mg of brain tissue. Tissue samples were homogenised using a ribolyser (Hybaid) with 3 bursts at 6.5 g lasting 20 seconds each. Samples were then spun at room temperature in a microfuge for 3 minutes. The supernatant was removed and re-spun for a further 3 minutes. The supernatant was decanted to a fresh tube to which an equal volume of 70% ethanol was added. The remaining RNA isolation procedure was carried out according to the manufacturer's protocol (Qiagen).
Synthesis of cDNA was carried out according to manufacturers protocols (Life Technologies). Briefly 3-5μg of total RNA was reverse transcribed using oligo dT priming. After cDNA synthesis, samples were aliquoted and stored at −70° C. […]
Alterations in expression levels were determined by semi-quantitative PCR. […] Samples were removed over 4 consecutive cycles, however, the first cycle to be removed sometimes varied depending on when logarithmic amplification was detected. […]

**Q.** Which results are given for c1ccc(C2(N3CCCCC3)CCCCC2)cc1 [PCP, phencyclidine]?
**A.** LCGU, AuD layers V & VI ([1]; 0.86 mgkg^−1 PCP i.p., day 29): 128 ± 9 μmol/100 g/min; LCGU, DLL ([1]; 0.86 mgkg^−1 PCP i.p., day 29): 116 ± 8 μmol/100 g/min; LCGU, MD ([1]; 0.86 mgkg^−1 PCP i.p., day 29): 122 ± 5 μmol/100 g/min; LCGU, PrL layer I ([1]; 0.86 mgkg^−1 PCP i.p., day 29): 133 ± 2 μmol/100 g/min; LCGU, PrL layers II & III ([1]; 0.86 mgkg^−1 PCP i.p., day 29): 149 ± 2 μmol/100 g/min; LCGU, PrL layers V & VI ([1]; 0.86 mgkg^−1 PCP i.p., day 29): 112 ± 3 μmol/100 g/min; LCGU, Rt ([1]; 0.86 mgkg^−1 PCP i.p., day 29): 108 ± 4 μmol/100 g/min; LCGU, VLL ([1]; 0.86 mgkg^−1 PCP i.p., day 29): 118 ± 13 μmol/100 g/min; LCGU, cochlear nucleus ([1]; 0.86 mgkg^−1 PCP i.p., day 29): 117 ± 2 μmol/100 g/min; LCGU, mO layer ([1]; 0.86 mgkg^−1 PCP i.p., day 29): 122 ± 3 μmol/100 g/min; LCGU, mO layers II & III ([1]; 0.86 mgkg^−1 PCP i.p., day 29): 135 ± 4 μmol/100 g/min; LCGU, mO layers V & VI ([1]; 0.86 mgkg^−1 PCP i.p., day 29): 136 ± 3 μmol/100 g/min; LCGU, Au layer I ([1]; 2.58 mgkg^−1 PCP i.p., day 8): 135 ± 3 μmol/100 g/min; LCGU, Au layers II, III&IV ([1]; 2.58 mgkg^−1 PCP i.p., day 8): 166 ± 5 μmol/100 g/min; LCGU, Au layers V & VI ([1]; 2.58 mgkg^−1 PCP i.p., day 8): 120 ± 4 μmol/100 g/min; LCGU, AuD layer I ([1]; 2.58 mgkg^−1 PCP i.p., day 8): 135 ± 3 μmol/100 g/min; LCGU, AuD layers II, III&IV ([1]; 2.58 mgkg^−1 PCP i.p., day 8): 151 ± 4 μmol/100 g/min; LCGU, AuD layers V & VI ([1]; 2.58 mgkg^−1 PCP i.p., day 8): 104 ± 2 μmol/100 g/min; LCGU, DLL ([1]; 2.58 mgkg^−1 PCP i.p., day 8): 83 ± 4 μmol/100 g/min; LCGU, MD ([1]; 2.58 mgkg^−1 PCP i.p., day 8): 115 ± 4 μmol/100 g/min; LCGU, PrL layer I ([1]; 2.58 mgkg^−1 PCP i.p., day 8): 104 ± 2 μmol/100 g/min; LCGU, PrL layers II & III ([1]; 2.58 mgkg^−1 PCP i.p., day 8): 133 ± 2 μmol/100 g/min; LCGU, PrL layers V & VI ([1]; 2.58 mgkg^−1 PCP i.p., day 8): 96 ± 3 μmol/100 g/min; LCGU, Rt ([1]; 2.58 mgkg^−1 PCP i.p., day 8): 86 ± 2 μmol/100 g/min; LCGU, VLL ([1]; 2.58 mgkg^−1 PCP i.p., day 8): 93 ± 3 μmol/100 g/min; LCGU, cochlear nucleus ([1]; 2.58 mgkg^−1 PCP i.p., day 8): 98 ± 3 μmol/100 g/min; LCGU, mO layer ([1]; 2.58 mgkg^−1 PCP i.p., day 8): 105 ± 4 μmol/100 g/min; LCGU, mO layers II & III ([1]; 2.58 mgkg^−1 PCP i.p., day 8): 127 ± 5 μmol/100 g/min; LCGU, mO layers V & VI ([1]; 2.58 mgkg^−1 PCP i.p., day 8): 115 ± 1 μmol/100 g/min; LCGU, Au layer I ([1]; 2.58 mgkg^−1 PCP i.p., day 29): 137 ± 5 μmol/100 g/min; LCGU, Au layers II, III&IV ([1]; 2.58 mgkg^−1 PCP i.p., day 29): 162 ± 6 μmol/100 g/min; LCGU, Au layers V & VI ([1]; 2.58 mgkg^−1 PCP i.p., day 29): 115 ± 3 μmol/100 g/min; LCGU, AuD layer I ([1]; 2.58 mgkg^−1 PCP i.p., day 29): 130 ± 7 μmol/100 g/min; LCGU, AuD layers II, III&IV ([1]; 2.58 mgkg^−1 PCP i.p., day 29): 146 ± 7 μmol/100 g/min; LCGU, AuD layers V & VI ([1]; 2.58 mgkg^−1 PCP i.p., day 29): 101 ± 4 μmol/100 g/min; LCGU, DLL ([1]; 2.58 mgkg^−1 PCP i.p., day 29): 96 ± 5 μmol/100 g/min; LCGU, MD ([1]; 2.58 mgkg^−1 PCP i.p., day 29): 116 ± 3 μmol/100 g/min; LCGU, PrL layer I ([1]; 2.58 mgkg^−1 PCP i.p., day 29): 107 ± 4 μmol/100 g/min; LCGU, PrL layers II & III ([1]; 2.58 mgkg^−1 PCP i.p., day 29): 116 ± 1 μmol/100 g/min; LCGU, PrL layers V & VI ([1]; 2.58 mgkg^−1 PCP i.p., day 29): 89 ± 2 μmol/100 g/min; LCGU, Rt ([1]; 2.58 mgkg^−1 PCP i.p., day 29): 89 ± 2 μmol/100 g/min; LCGU, VLL ([1]; 2.58 mgkg^−1 PCP i.p., day 29): 99 ± 4 μmol/100 g/min; LCGU, cochlear nucleus ([1]; 2.58 mgkg^−1 PCP i.p., day 29): 94 ± 4 μmol/100 g/min; LCGU, mO layer ([1]; 2.58 mgkg^−1 PCP i.p., day 29): 108 ± 5 μmol/100 g/min; LCGU, mO layers II & III ([1]; 2.58 mgkg^−1 PCP i.p., day 29): 124 ± 5 μmol/100 g/min; LCGU, mO layers V & VI ([1]; 2.58 mgkg^−1 PCP i.p., day 29): 111 ± 3 μmol/100 g/min; LCGU in medial orbital cortex, prelimbic cortex, auditory pathway, reticular nucleus of the thalamus ([1]; 2.58 mgkg^−1 PCP, after both phases of the model): induced a metabolic hypofunction; effect on LCGU within any brain area ([1]; subchronic PCP 5 mgkg^−1 twice daily for seven days (data not shown)): did not produce any significant effect; expression of CIRL3 (AA) (RT-PCR) [2]: reduced
